{"source": "patent US5242945A", "about": "“Tetronic and thiotetronic acid derivatives as phospholipase A2 inhibitors” (American Home Products Corporation, priority 1991, dated 1993)", "key": {"[1]": {"system": "purified PLA2, from the diamond back cotton mouth snake (A. piscivorus piscivorus)", "experiment": "in vivo PLA2 murine paw edema assay", "parameters": "species or system A. piscivorus piscivorus PLA2 in CD-1 mice", "settings": "p.o.; at +10 min", "experimental": "The ability of the compounds of the invention to inhibit paw edema induced by the exogenous administration of PLA2 is measured in the in vivo PLA2 murine paw edema assay.\nNon-fasted, male CD-1 mice (8 weeks old; 31-36 grams) are placed in plastic boxes in groups of six. The right hind paw volume is measured using mercury plethysmography (zero time). Compounds are dosed orally (0.5 mL of 0.5% Tween-80) 1 or 3 hours prior to PLA2 injection or intravenously (0.2 mL in 0.3% dimethylsulfoxide/saline) 3 minutes prior to PLA2 injection. A solution of purified PLA2, from the diamond back cotton mouth snake (A. piscivorus piscivorus) is prepared in saline at a concentration of 6 μg/mL. Fifty (50) μL (0.3 μg) of this PLA2 solution is injected subcutaneously into the right hind paw with a plastic 1 mL plastic syringe (27 gauge, 1\" needle). Paw volume of the injected paw is measured again at 10 minutes, 30 minutes and 60 minutes after PLA2 injection. Animals are euthanized with CO2 at the completion of the study.\nThe paw edema is calculated by subtracting the zero time volume from the volume recorded at each time period. Mean paw edema for each treatment group is then calculated and expressed as (μL±S.E.). Drug effects are expressed as a percent change from control (vehicle) values. Statistical significance is determined by a one-way analysis of variance with LSD comparison to control (p<0.05). ED50 's are determined using […]."}, "[2]": {"system": "AA-induced ear edema", "experiment": "arachidonic acid (AA)-induced murine ear edema assay", "assay_type": "in vivo, mouse (Swiss Webster)"}, "[3]": {"system": "TPA-induced ear edema", "experiment": "12-o-tetradecanoylphorbol acetate (TPA)-induced murine ear edema assay", "assay_type": "in vivo, mouse (Swiss Webster)", "settings": "oral, TPA-induced", "experimental": "The ability of the compounds of the invention to inhibit inflammatory responses is examined in the in vivo arachidonic acid (AA)/12-o-tetradecanoylphorbol acetate (TPA)-induced murine ear edema assay.\nSwiss Webster female mice (Buckshire), approximately 8 weeks old are placed into plastic boxes in groups of six. Eight groups of mice receive AA topically on the right ear, and another 8 groups receive TPA topically on the right ear. AA and TPA are dissolved in acetone at concentrations of 100 mg/ml and 100 μg/ml respectively. The phlogistics are applied to the right ear by the means of an automatic pipet. Volumes of 10 μl are applied to the inner and outer surfaces of the ear. Each mouse receives either 2 mg/ear AA or 2 μg/ear TPA. The left ear (control) receives acetone delivered in the same manner. Topical and subcutaneous dosing regimens are as follows 1) drugs are given 30 minutes prior to AA treatment and 2) drugs are given 30 minutes after treatment with TPA.\nMeasurements are taken with Oditest calipers, 0-10 mm with 0.01 graduations. The right and left ears are measured after 1 hr AA-induced inflammation and 4 hours after TPA-induced inflammation.\nThe difference between right and left ear thickness is calculated and the significance is determined by a one way analysis of variance with Dunnett's comparisons to control (P=0.05). Drug effects are expressed as a percent change from control values: [formula]"}, "[4]": {"system": "lipoxygenase and/or cyclooxygenase pathways of arachidonic acid metabolism", "experiment": "in vivo murine zymosan peritonitis assay", "parameters": "species or system mouse (CD-1)", "experimental": "The compounds of the invention are evaluated for their ability to inhibit the lipoxygenase and/or cyclooxygenase pathways of arachidonic acid metabolism in the in vivo murine zymosan peritonitis assay.\nMale CD-1 mice (8 weeks old) are placed in plastic boxes in groups of six. Animals are injected with 1 mL i.p. of either 1% zymosan in pyrogen free 0.9% saline or saline (unstimulated control). Compounds are dosed orally 1 hour prior to zymosan injection. Twenty minutes after zymosan injection, the mice are asphyxiated by CO2 inhalation and the peritoneal cavity is lavaged with 2 mL ice cold Hanks Balanced Salt Solution (HBSS) without CaCl2, MgSO4. 7H2 O and MgCl2.6H2 O. Peritoneal lavage fluid from each mouse is removed by syringe and placed in 5 mL plastic test tubes put on ice and volume is noted. Preparation of samples for evaluation by ELISA is as follows: Samples are centrifuged at 800 xg for 15 minutes; 1 mL of the supernatant is added to 8 mL ice cold methanol and kept at -70° C. overnight to precipitate protein; and samples are then centrifuged at 800 xg for 15 minutes, followed by a drying procedure in a Savant speed vac concentrator. The samples are reconstituted with 1 mL ice cold ELISA buffer and stored at -70° C. until assayed. The assay for eicosanoids (LTC4 and 6-keto-PGF1α) is performed according to conventional ELISA procedures.\nCompounds to be tested orally are suspended in 0.5% Tween 80. Compounds to be tested intraperitoneally are suspended in 0.5% methylcellulose in 0.9% saline.\nThe total metabolite level in lavage fluid/mouse is calculated and the significance is determined by a one-way analysis of variance with LSD comparisons to control (p≤0.05). Drug effects are expressed as a percent change from control values."}}}
{"compound": "NC1=NN(c2cccc(C(F)(F)F)c2)CC1", "note": "[BW 755c, reference compound]", "values": [{"measurement": "ED50 at +10 min.", "setting": "[1]", "value": 50, "unit": "mg/kg"}, {"measurement": "ED50", "setting": "[2]; Mus musculus, 1 h, oral", "value": 65, "unit": "mg/kg"}, {"measurement": "ED50", "setting": "[3]; Mus musculus, 4 h, read-out: Oral ED50 (TPA)", "value": 88, "unit": "mg/kg"}]}
{"compound": "COc1ccc2c(c1)c(CC(=O)O)c(C)n2C(=O)c1ccc(Cl)cc1", "note": "[indomethacin]", "values": [{"measurement": "% Inhibition LTC4", "setting": "[4]; 10 mg/kg p.o.", "value": "+25%"}, {"measurement": "ED50 LTC4", "setting": "[4]; p.o.", "value": "Not Active"}, {"measurement": "Oral ED50 (AA)", "setting": "[2]", "value": "inactive at 10"}, {"measurement": "Oral ED50 (TPA)", "setting": "[3]", "value": "inactive at 10"}]}
